Data published in patent publication US20140005163A1 (NOVARTIS AG, priority 2010, published 2014).

Tests used:
PI3K delta = molecular target: T1, PI3K delta (Homo sapiens, UniProt O00329); assay: PI3K delta kinase assay (Kinase-Glo luminescence); format: biochemical
T1 construct: for the full-length p110-d subunit are generated and fused by overlapping PCR; p85(iSH2) fusion partner (see partner chain) (N); His tag (C); made in house; host or cells: baculovirus; Tn5 (Trichoplusia ni) or TiniPro insect cells
T1 sequence (O00329 with tags, fused parts or gaps limits assumed): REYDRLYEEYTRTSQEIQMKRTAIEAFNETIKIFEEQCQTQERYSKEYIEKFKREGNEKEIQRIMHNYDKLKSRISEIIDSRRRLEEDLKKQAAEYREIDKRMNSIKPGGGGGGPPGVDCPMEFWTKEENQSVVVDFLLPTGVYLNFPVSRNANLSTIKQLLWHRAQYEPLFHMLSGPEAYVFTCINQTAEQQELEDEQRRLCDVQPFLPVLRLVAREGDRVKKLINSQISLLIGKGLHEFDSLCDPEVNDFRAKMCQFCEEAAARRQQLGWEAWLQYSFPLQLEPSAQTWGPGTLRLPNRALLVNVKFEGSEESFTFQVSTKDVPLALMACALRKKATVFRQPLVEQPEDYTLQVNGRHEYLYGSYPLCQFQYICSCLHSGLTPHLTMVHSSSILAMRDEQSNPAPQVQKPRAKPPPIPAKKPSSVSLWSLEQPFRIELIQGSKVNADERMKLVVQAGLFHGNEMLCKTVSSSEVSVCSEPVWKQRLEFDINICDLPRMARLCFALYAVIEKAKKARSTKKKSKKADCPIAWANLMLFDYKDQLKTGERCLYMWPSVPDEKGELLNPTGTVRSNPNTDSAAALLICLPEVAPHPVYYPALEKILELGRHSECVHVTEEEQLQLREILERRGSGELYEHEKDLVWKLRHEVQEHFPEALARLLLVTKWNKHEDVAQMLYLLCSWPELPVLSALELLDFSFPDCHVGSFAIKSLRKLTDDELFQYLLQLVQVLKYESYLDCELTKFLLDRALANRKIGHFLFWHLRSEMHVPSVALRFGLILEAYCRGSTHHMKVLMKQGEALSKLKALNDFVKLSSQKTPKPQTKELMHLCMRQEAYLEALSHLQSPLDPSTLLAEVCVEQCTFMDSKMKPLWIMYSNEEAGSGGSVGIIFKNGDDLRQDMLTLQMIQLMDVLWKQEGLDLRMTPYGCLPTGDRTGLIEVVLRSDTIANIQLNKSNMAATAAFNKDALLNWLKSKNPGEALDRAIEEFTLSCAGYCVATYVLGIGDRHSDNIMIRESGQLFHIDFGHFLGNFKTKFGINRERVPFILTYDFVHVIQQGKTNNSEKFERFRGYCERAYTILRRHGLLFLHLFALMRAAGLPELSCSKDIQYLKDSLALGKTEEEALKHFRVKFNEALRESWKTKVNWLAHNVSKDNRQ
Method in brief: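 Lipid kinase activity of a His-tagged p110δ full-length/p85 iSH2 fusion (10 nM) toward bovine liver phosphatidylinositol (10 μg/mL) at 1 μM ATP, pH 7.5, 60 min, room temperature. ATP consumption is quantified by luciferase-based luminescence. Four-parameter logistic fitting gives IC50.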

[1] = tested on: PKB Ser473 phosphorylation in Rat1-myr-HA-p110 delta cells; assay: Reverse protein array assay, PKB Ser473 phosphorylation in Rat1-myr-p110 delta cells; format: cell-based; conditions: read-out: p-PKB IC50
Method in brief: (§1)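 Measured: PKB Ser473 phosphorylation by reverse protein array in Rat1 cells expressing myr-HA-p110 alpha, beta or delta, after 30 min compound treatment at 37 °C with 0.2% DMSO vehicle.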

[2] = tested on: PKB Ser473 phosphorylation in Rat1-myr-HA-p110 beta cells; assay: Reverse protein array assay, PKB Ser473 phosphorylation in Rat1-myr-p110 beta cells; format: cell-based; conditions: 0.5 h, pAkt Ser473, 30 minutes incubation, read-out: p-PKB IC50
Method in brief: as §1

PI3K beta = molecular target: T2, PI3K beta (Homo sapiens, UniProt P42338); assay: PI3K beta kinase assay (Kinase-Glo luminescence); format: biochemical
T2 construct: for the full-length p110-b subunit are generated and fused by overlapping PCR; p85(iSH2) fusion partner (see partner chain) (N); His tag (C); made in house; host or cells: baculovirus; Tn5 (Trichoplusia ni) or TiniPro insect cells
T2 sequence (P42338 with tags, fused parts or gaps limits assumed): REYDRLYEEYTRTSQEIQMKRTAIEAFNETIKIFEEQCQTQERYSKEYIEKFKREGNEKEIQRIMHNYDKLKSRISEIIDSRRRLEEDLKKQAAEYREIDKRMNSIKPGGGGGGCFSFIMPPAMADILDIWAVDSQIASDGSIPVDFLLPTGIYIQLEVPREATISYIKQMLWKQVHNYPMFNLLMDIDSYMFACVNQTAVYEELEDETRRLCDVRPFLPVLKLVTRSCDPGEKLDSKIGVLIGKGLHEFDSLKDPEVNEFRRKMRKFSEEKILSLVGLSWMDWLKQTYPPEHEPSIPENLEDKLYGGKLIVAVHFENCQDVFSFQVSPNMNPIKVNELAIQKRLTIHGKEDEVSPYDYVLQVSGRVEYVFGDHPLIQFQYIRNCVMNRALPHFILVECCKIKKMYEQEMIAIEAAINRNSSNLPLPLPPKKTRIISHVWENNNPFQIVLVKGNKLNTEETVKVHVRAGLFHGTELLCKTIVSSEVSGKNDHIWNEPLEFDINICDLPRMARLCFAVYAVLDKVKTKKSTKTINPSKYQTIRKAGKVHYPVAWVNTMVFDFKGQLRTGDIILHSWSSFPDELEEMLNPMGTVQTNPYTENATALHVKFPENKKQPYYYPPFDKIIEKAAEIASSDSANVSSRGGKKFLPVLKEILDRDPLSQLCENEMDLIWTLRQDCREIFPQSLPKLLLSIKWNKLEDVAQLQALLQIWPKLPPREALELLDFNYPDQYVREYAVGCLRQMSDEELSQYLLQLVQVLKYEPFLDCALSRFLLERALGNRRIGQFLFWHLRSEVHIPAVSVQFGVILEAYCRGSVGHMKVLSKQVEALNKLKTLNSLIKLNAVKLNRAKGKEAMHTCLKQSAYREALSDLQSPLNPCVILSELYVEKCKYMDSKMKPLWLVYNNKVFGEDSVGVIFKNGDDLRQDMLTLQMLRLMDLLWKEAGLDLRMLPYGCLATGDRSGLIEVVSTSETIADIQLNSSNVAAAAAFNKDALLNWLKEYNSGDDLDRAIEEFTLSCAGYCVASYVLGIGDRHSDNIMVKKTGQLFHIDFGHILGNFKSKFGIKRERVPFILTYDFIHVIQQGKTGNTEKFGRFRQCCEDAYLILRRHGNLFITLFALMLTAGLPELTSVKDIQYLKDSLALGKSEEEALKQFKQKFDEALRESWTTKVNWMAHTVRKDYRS
Method in brief: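 Enzyme: BV949 p85(iSH2)-Gly linker-p110β FL-His, 25 nM. Substrate: PI 10 μg/mL. ATP: 1 μM, added to start. Buffer: Tris pH 7.5 10 mM, MgCl2 3 mM, NaCl 50 mM, CHAPS 0.05%, DTT 1 mM. RT, 60 min. Readout: Kinase-Glo. IC50 by 4-parameter fit.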

PI3K alpha = molecular target: T3, PI3K alpha (Homo sapiens, UniProt P42336); assay: PI3K alpha kinase assay (Kinase-Glo luminescence); format: biochemical
T3 construct: p85(iSH2) fusion partner (see partner chain) (N); His tag (C); made in house; host or cells: baculovirus; Tn5 (Trichoplusia ni) or TiniPro insect cells
T3 sequence (P42336 with tags, fused parts or gaps limits assumed): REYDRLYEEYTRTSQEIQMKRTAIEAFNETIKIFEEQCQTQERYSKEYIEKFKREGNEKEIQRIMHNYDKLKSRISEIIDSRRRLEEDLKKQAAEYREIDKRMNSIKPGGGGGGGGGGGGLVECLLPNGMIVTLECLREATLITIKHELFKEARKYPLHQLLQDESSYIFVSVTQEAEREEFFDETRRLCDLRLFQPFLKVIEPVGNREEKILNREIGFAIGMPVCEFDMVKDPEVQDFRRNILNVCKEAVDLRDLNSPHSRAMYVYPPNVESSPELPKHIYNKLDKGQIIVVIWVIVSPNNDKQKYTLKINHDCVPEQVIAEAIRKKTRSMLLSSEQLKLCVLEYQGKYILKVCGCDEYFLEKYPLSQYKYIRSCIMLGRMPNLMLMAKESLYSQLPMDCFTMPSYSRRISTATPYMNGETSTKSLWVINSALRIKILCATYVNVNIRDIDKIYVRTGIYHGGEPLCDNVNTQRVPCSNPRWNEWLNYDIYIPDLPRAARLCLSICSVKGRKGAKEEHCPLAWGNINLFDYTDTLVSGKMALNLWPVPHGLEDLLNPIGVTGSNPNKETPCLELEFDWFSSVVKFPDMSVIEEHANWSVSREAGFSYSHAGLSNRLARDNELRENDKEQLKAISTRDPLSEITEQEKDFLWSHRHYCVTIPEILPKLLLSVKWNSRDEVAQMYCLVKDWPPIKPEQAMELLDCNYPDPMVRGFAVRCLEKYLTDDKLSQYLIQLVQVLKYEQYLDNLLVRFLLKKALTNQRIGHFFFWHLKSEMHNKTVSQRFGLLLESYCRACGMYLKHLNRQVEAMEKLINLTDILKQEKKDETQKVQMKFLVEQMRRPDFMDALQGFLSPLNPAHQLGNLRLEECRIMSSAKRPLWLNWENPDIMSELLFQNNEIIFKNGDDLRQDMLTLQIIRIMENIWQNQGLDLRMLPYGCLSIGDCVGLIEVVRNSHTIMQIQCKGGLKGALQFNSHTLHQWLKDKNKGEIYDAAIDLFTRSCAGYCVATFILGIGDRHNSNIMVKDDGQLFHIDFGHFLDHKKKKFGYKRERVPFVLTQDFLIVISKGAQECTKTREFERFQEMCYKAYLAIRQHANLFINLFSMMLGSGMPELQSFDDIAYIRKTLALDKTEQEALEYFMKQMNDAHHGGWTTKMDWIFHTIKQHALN
Method in brief: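 Enzyme 10 nM PI3Kα EMV B1075; ATP 1 μM; PI 10 μg/mL; Tris-HCl pH 7.5 10 mM, MgCl2 3 mM, NaCl 50 mM, CHAPS 0.05%, DTT 1 mM; 60 min RT; Kinase-Glo luminescence; 4-parameter IC50 fit, 8 concentrations, single points.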

[3] = tested on: PKB Ser473 phosphorylation in Rat1-myr-HA-p110 alpha cells; assay: Reverse protein array assay, PKB Ser473 phosphorylation in Rat1-myr-p110 alpha cells; format: cell-based; conditions: 0.5 h, pAkt Ser473, 30 minutes compound incubation, read-out: p-PKB IC50
Method in brief: as §1

CCOc1cncc(-c2ccc3ncc4c(c3c2)n(-c2cn(C)nc2C)c(=O)n4C)c1 [Example 56.1, 1-(1,3-Dimethyl-1H-pyrazol-4-yl)-8-(5-ethoxy-pyridin-3-yl)-3-methyl-1,3-dihydro-imidazo[4,5-c]quinolin-2-one]
IC50 (PI3K delta): 6 nM
IC50 [1]: 50 nM
IC50 [2]: 29 nM
IC50 (PI3K beta): 6 nM
IC50 (PI3K alpha): 4 nM
IC50 [3]: 16 nM

CCn1cc(-n2c(=O)n(C)c3cnc4ccc(-c5cncc(OC(C)C)c5)cc4c32)c(C)n1 [Example 58.4, 1-(1-Ethyl-3-methyl-1H-pyrazol-4-yl)-8-(5-isopropoxy-pyridin-3-yl)-3-methyl-1,3-dihydro-imidazo[4,5-c]quinolin-2-one]
IC50 (PI3K delta): 12 nM
IC50 [1]: 86 nM
IC50 [2]: 139 nM
IC50 (PI3K beta): 29 nM
IC50 (PI3K alpha): 14 nM
IC50 [3]: 25 nM

COCCOc1cncc(-c2ccc3ncc4c(c3c2)n(-c2cn(C)nc2C)c(=O)n4C)c1 [Example 59.1, 1-(1,3-Dimethyl-1H-pyrazol-4-yl)-8-[5-(2-methoxy-ethoxy)-pyridin-3-yl]-3-methyl-1,3-dihydro-imidazo[4,5-c]quinolin-2-one]
IC50 (PI3K delta): 91 nM
IC50 [1]: 204 nM
IC50 [2]: 265 nM
IC50 (PI3K beta): 89 nM
IC50 (PI3K alpha): 18 nM
IC50 [3]: 126 nM

Cc1nn(C)cc1-n1c(=O)n(C)c2cnc3ccc(-c4cncc(OCC5CC5)c4)cc3c21 [Example 61, 8-(5-Cyclopropylmethoxy-pyridin-3-yl)-1-(1,3-dimethyl-1H-pyrazol-4-yl)-3-methyl-1,3-dihydro-imidazo[4,5-c]quinolin-2-one]
IC50 (PI3K delta): 17 nM
IC50 [1]: 246 nM
IC50 [2]: 28 nM
IC50 (PI3K beta): 25 nM
IC50 (PI3K alpha): 12 nM
IC50 [3]: 13 nM

Cc1nn(C)c(C)c1-n1c(=O)n(C)c2cnc3ccc(-c4cnc(N)nc4)cc3c21 [Example 81.2, 8-(2-Amino-pyrimidin-5-yl)-3-methyl-1-(1,3,5-trimethyl-1H-pyrazol-4-yl)-1,3-dihydro-imidazo[4,5-c]quinolin-2-one]
IC50 (PI3K delta): 30 nM
IC50 [1]: 382 nM
IC50 [2]: 295 nM
IC50 (PI3K beta): 281 nM
IC50 (PI3K alpha): 51 nM
IC50 [3]: 220 nM

CCOc1cc(-c2ccc3ncc4c(c3c2)n(-c2cn(C)nc2C)c(=O)n4C)cnc1C [Example 85.1, 1-(1,3-Dimethyl-1H-pyrazol-4-yl)-8-(5-ethoxy-6-methyl-pyridin-3-yl)-3-methyl-1,3-dihydro-imidazo[4,5-c]quinolin-2-one]
IC50 (PI3K delta): 3 nM
IC50 [1]: 33 nM
IC50 [2]: 6 nM
IC50 (PI3K beta): 12 nM
IC50 (PI3K alpha): 6 nM
IC50 [3]: < 5 nM

Cc1ncc(-c2ccc3ncc4c(c3c2)n(-c2cn(C)nc2Cl)c(=O)n4C)cc1N [Example 88.1, 8-(5-Amino-6-methyl-pyridin-3-yl)-1-(3-chloro-1-methyl-1H-pyrazol-4-yl)-3-methyl-1,3-dihydro-imidazo[4,5-c]quinolin-2-one]
IC50 (PI3K delta): 4 nM
IC50 [1]: 15 nM
IC50 [2]: 8 nM
IC50 (PI3K beta): 28 nM
IC50 (PI3K alpha): 11 nM
IC50 [3]: < 5 nM

CCOc1cc(-c2ccc3ncc4c(c3c2)n(-c2cn(C)nc2C)c(=O)n4C)ccn1 [Example 91, 1-(1,3-Dimethyl-1H-pyrazol-4-yl)-8-(2-ethoxy-pyridin-4-yl)-3-methyl-1,3-dihydro-imidazo[4,5-c]quinolin-2-one]
IC50 (PI3K delta): 203 nM
IC50 [1]: 631 nM
IC50 [2]: 391 nM
IC50 (PI3K beta): 409 nM
IC50 (PI3K alpha): 83 nM
IC50 [3]: 234 nM

COc1ccc(-c2ccc3ncc4c(c3c2)n(-c2cn(CCO)nc2C)c(=O)n4C)cn1 [Example 103.1, 1-[1-(2-Hydroxy-ethyl)-3-methyl-1H-pyrazol-4-yl]-8-(6-methoxy-pyridin-3-yl)-3-methyl-1,3-dihydro-imidazo[4,5-c]quinolin-2-one]
IC50 (PI3K delta): 19 nM
IC50 [1]: 66 nM
IC50 [2]: 30 nM
IC50 (PI3K beta): 101 nM
IC50 (PI3K alpha): 20 nM
IC50 [3]: 47 nM

CCOc1ccc(-c2ccc3ncc4c(c3c2)n(-c2cn(CCO)nc2C)c(=O)n4C)cn1 [Example 103.2, 8-(6-Ethoxy-pyridin-3-yl)-1-[1-(2-hydroxy-ethyl)-3-methyl-1H-pyrazol-4-yl]-3-methyl-1,3-dihydro-imidazo[4,5-c]quinolin-2-one]
IC50 (PI3K delta): 71 nM
IC50 [1]: 106 nM
IC50 [2]: 14 nM
IC50 (PI3K beta): 332 nM
IC50 (PI3K alpha): 42 nM
IC50 [3]: 7 nM

CCOc1ccc(-c2ccc3ncc4c(c3c2)n(-c2cn(CC(=O)N3CCC3)nc2C)c(=O)n4C)cn1 [Example 138, 1-[1-(2-Azetidin-1-yl-2-oxo-ethyl)-3-methyl-1H-pyrazol-4-yl]-8-(6-ethoxy-pyridin-3-yl)-3-methyl-1,3-dihydro-imidazo[4,5-c]quinolin-2-one]
IC50 (PI3K delta): 42 nM
IC50 [1]: 58 nM
IC50 [2]: 38 nM
IC50 (PI3K beta): 377 nM
IC50 (PI3K alpha): 13 nM
IC50 [3]: 36 nM

CNc1ncc(-c2ccc3ncc4c(c3c2)n(-c2cn(C)nc2C)c(=O)n4C)cc1C(F)(F)F [Example 144.3, 1-(1,3-Dimethyl-1H-pyrazol-4-yl)-3-methyl-8-(6-methylamino-5-trifluoromethyl-pyridin-3-yl)-1,3-dihydro-imidazo[4,5-c]quinolin-2-one]
IC50 (PI3K delta): 9 nM
IC50 [1]: 11 nM
IC50 [2]: < 5 nM
IC50 (PI3K beta): 16 nM
IC50 (PI3K alpha): 10 nM
IC50 [3]: < 5 nM

CNc1ncc(-c2ccc3ncc4c(c3c2)n(-c2cn(C)nc2C)c(=O)n4C)cc1Cl [Example 146.1, 8-(5-Chloro-6-methylamino-pyridin-3-yl)-1-(1,3-dimethyl-1H-pyrazol-4-yl)-3-methyl-1,3-dihydro-imidazo[4,5-c]quinolin-2-one]
IC50 (PI3K delta): 16 nM
IC50 [1]: 24 nM
IC50 [2]: 9 nM
IC50 (PI3K beta): 45 nM
IC50 (PI3K alpha): 14 nM
IC50 [3]: < 5 nM

CCn1cc(-n2c(=O)n(C)c3cnc4ccc(-c5cnc(NC)c(Cl)c5)cc4c32)c(C)n1 [Example 146.2, 8-(5-Chloro-6-methylamino-pyridin-3-yl)-1-(1-ethyl-3-methyl-1H-pyrazol-4-yl)-3-methyl-1,3-dihydro-imidazo[4,5-c]quinolin-2-one]
IC50 (PI3K delta): 30 nM
IC50 [1]: 18 nM
IC50 [2]: 11 nM
IC50 (PI3K beta): 66 nM
IC50 (PI3K alpha): 119 nM
IC50 [3]: < 5 nM

Cc1nn(C(C)C)cc1-n1c(=O)n(C)c2cnc3ccc(-c4cnc(F)c(N)c4)cc3c21 [Example 149.1, 8-(5-Amino-6-fluoro-pyridin-3-yl)-1-(1-isopropyl-3-methyl-1H-pyrazol-4-yl)-3-methyl-1,3-dihydro-imidazo[4,5-c]quinolin-2-one]
IC50 (PI3K delta): 17 nM
IC50 [1]: 118 nM
IC50 [2]: 66 nM
IC50 (PI3K beta): 68 nM
IC50 (PI3K alpha): 48 nM
IC50 [3]: 31 nM

Cc1nn(C)cc1-n1c(=O)n(C)c2cnc3ccc(-c4cnc(F)c(N)c4)cc3c21 [Example 149.2, 8-(5-Amino-6-fluoro-pyridin-3-yl)-1-(1,3-dimethyl-1H-pyrazol-4-yl)-3-methyl-1,3-dihydro-imidazo[4,5-c]quinolin-2-one]
IC50 (PI3K delta): 8 nM
IC50 [1]: 56 nM
IC50 [2]: 68 nM
IC50 (PI3K beta): 12 nM
IC50 (PI3K alpha): 7 nM
IC50 [3]: 80 nM

CCn1cc(-n2c(=O)n(C)c3cnc4ccc(-c5cnc(F)c(NC)c5)cc4c32)c(C)n1 [Example 150.1, 1-(1-Ethyl-3-methyl-1H-pyrazol-4-yl)-8-(6-fluoro-5-methylamino-pyridin-3-yl)-3-methyl-1,3-dihydro-imidazo[4,5-c]quinolin-2-one]
IC50 (PI3K delta): 8 nM
IC50 [1]: 21 nM
IC50 [2]: 11 nM
IC50 (PI3K beta): 17 nM
IC50 (PI3K alpha): 7 nM
IC50 [3]: 9 nM

CCNc1cc(-c2ccc3ncc4c(c3c2)n(-c2c(C)nn(C)c2C)c(=O)n4C)cnc1Cl [Example 153.1, 8-(6-Chloro-5-ethylamino-pyridin-3-yl)-3-methyl-1-(1,3,5-trimethyl-1H-pyrazol-4-yl)-1,3-dihydro-imidazo[4,5-c]quinolin-2-one]
IC50 (PI3K delta): 3 nM
IC50 [1]: 19 nM
IC50 [2]: 17 nM
IC50 (PI3K beta): 14 nM
IC50 (PI3K alpha): 10 nM
IC50 [3]: 19 nM
